Blank lines part the entries; values can stand above or below the molecule they belong to.
Experiments:
[1] = target: T1, TrkB extracellular domain (ECD) (Homo sapiens, UniProt Q16620); experiment: In vitro binding assay with purified TrkB ECD and 3H-ligands; conditions: purified ECD, 3H-ligand
T1 construct: purified ECD (extracellular domain) and ICD (intracellular domain) proteins from Trk receptors
Protocol: (§1) Purified TrkA and TrkB ECD or ICD proteins were incubated with different ^3H-catecholamines at 25° C. for 30 minutes in 1 ml of binding buffer (50 mM Tris-HCl, pH 7.4, 100 mM NaCl, 5 nM ^3H-catecholamines (32000 cpm)). After the incubation, the reaction mixture was loaded on a Whatman glass-fiber filter (GF-B) (Whatman Inc.; Piscataway, N.J.). The mixture was washed with 3×5 ml washing buffer (50 mM Tris-HCl, pH 7.4). The dried filter paper was put into a small vial and subjected to liquid scintillation counter analysis. The value of the dissociate constant and the number of sites were obtained from Scatchard plots by using the equation r/[L]free =n/Kd−r/Kd, where r is the ratio of the concentration of bound ligand to the total protein concentration and n is the number of binding sites.
(§2) To determine whether catecholamines bind TrkB directly, an in vitro binding assay was conducted with purified ECD (extracellular domain) and ICD (intracellular domain) proteins from Trk receptors and ^3H-catecholamines. […] To determine whether the binding by catecholamines to TrkB receptor caused dimerization, GST-TrkB was co-transfected into HEK293 cells with HA-TrkB, followed by BDNF or monoamines treatment for 15 minutes.

TrkB [2] = target: T2, TrkB (Rattus norvegicus, UniProt Q63604); experiment: TrkB activation in cortical neurons after pretreatment with antibodies, receptor antagonists, transporter inhibitors or EDTA (anti-p-TrkB-Y-816 immunoblot); assay type: cell-based; conditions: BDNF-IgG 30 minutes, then BDNF 10 ng/ml or catecholamines 100 nM, 15 minutes
T2 construct: endogenous in cells; host or cells: primary rat cortical and hippocampal neurons
Description: (§3) Both antidepressants and exercise increase hippocampal BDNF mRNA expression through enhanced 5-HT and/or NE neurotransmission (Siuciak et al., Pharmacol. Biochem. Behav., 56:131-137, 1997; Dias et al., Neuropharmacology, 45:553-563, 2003; Ivy et al., Pharmacol. Biochem. Behav., 75:81-88, 2003; Garza et al., Pharmacol. Biochem. Behav., 77:209-220, 2004). If catecholamines activated TrkB signaling indirectly by promoting BDNF generation, then scavenging BDNF with its specific antibody would be expected to diminish catecholamines-mediated activation of TrkB. Cultured cortical neurons were pretreated with BDNF-IgG for 30 minutes followed by exposure to BDNF (10 ng/ml) or catecholamines (100 nM) for 15 minutes. […] It was then determined whether catecholamines could activate TrkB in neurons cultured from mice carrying a null mutation of BDNF.
To further investigate the specificity of catecholamines in inducing TrkB activation, cortical neurons were pretreated with control IgG or norepinephrine IgG, a rabbit polyclonal antibody for norepinephrine, followed by catecholamines.
(§4) It was then determined whether catecholamines could activate TrkB in neurons cultured from mice carrying a null mutation of NET.
(§5) The cell lysates were analyzed by immunoblotting with anti-p-TrkB-Y-816.
as §5
A group of primary cortical neurons were pretreated with 1 mM EDTA, and another group of primary cortical neurons were not pretreated. Both groups of primary cortical neurons were then treated with either Zn (100 μM) or a catecholamine (100 nM) for 15 minutes. The neuronal cell lysates were analyzed by immunoblotting with anti-p-TrkB-Y-816 antibody.

TrkB [3] = target: T3, TrkB (Mus musculus, UniProt P15209); experiment: TrkB activation in cortical neurons cultured from BDNF-null mice; assay type: cell-based; conditions: 15 min
T3 construct: endogenous in cells; host or cells: primary cortical neurons from BDNF-null, TrkB +/- cross, TrkC knockout and NET -/- mice
Description: as §3

TrkB [4] = target: T4, TrkB (Mus musculus, UniProt P15209, F616A); assay type: in vivo; conditions: 1NMPP1 50 μM; for TrkB tyrosine phosphorylation/activation in mice: L-DOPA 50 mg/kg, DOPS 100 mg/kg
T4 construct: from tissue; host or cells: mouse brain
Protocol: The DOPS concentration was 20 mg/ml, the vitamin C concentration was 2 mg/ml, and the benserazide concentration was 5 mg/ml. The vitamin C prevents oxidation of the DOPS, and the benserazide is a peripheral inhibitor of AADC and restricts the production of NE from DOPS to the brain. The compounds were added to a tube, and 20 μl of 10 M HCl was added to each ml of DOPS solution. The appropriate amount of water was added to the tube, and then HCl was added to achieve the desired volume. For example, to make 1 mL of a DOPS solution, 20 mg DOPS, 2 mg vitamin C, and 5 mg benserazide were added to a tube, followed by 980 μL of water and 20 μL of 10 M HCl. The solution was vortexed until all DOPS was dissolved. The DOPS solution was injected subcutaneously in a volume of 50 μl/g of mouse. The appropriate amount of DOPS solution was pipetted into a clean tube, followed by the amount of 10 M NaOH required to exactly neutralize the HCl. The solution was then shaken. The amount of 10 M NaOH is the weight of the mouse in microliters. For example, for a 20 g mouse, pipet 1 ml of the DOPS solution is pipetted into a tube and 20 μL of 10 M NaOH is added. For a 30 g mouse, 1.5 mL of the DOPS solution is pipetted into a tube and 30 μl of 10 M NaOH is added. Two to four month-old TrkBF616A mice were pretreated with 1NMPP1 in drinking water (50 μM) 1 day before L-DOPA (50 mg/kg) or DOPS (100 mg/kg) intraperitoneal injection. At times of 2 hours and 5 hours after drug administration, the L-DOPA or DOPS-treated mice were sacrificed, respectively. The brain lysates were prepared and analyzed by immunoblotting against anti-phospho-TrkB Y816 and TrkA Y794 antibodies.
(§6) TrkB F616A mice were pretreated with 1NMPP1 (50 μM) before L-DOPA or DOPS administration.

TrkB F616A [5] = target: T5, TrkB F616A (Mus musculus, UniProt P15209); experiment: TrkB phosphorylation in TrkB F616A or TrkA F592A cortical neurons pretreated with K252a or 1NMPP1; assay type: cell-based, mice; conditions: TrkA F592A neurons
T5 construct: endogenous in cells; host or cells: primary cortical neurons from TrkB F616A knock-in mice
Protocol: as §6
(§7) On day 7, the primary cortical neurons were pretreated with 100 nM K252a or 1NMPP1 for 30 min, followed by 500 nM ADPP and DDAP. Cell lysates were analyzed by Western blotting.

TrkB F616A [6] = target: T6, TrkB F616A (Mus musculus, UniProt P15209, F616A); experiment: as above; assay type: cell-based, mice; conditions: TrkB F616A knock-in cortical neurons
T6 construct: endogenous in cells; host or cells: primary cortical neurons from TrkB F616A knock-in mice
Protocol: as §6, §7

[7] = tested on: TrkB F616A cortical neurons; experiment: Glutamate-provoked apoptosis of TrkB F616A cortical neurons (TUNEL assay); assay type: cell-based, mice; parameters: Effect of inhibitor on protective action of norepinephrine: dose or concentration left out as unconfirmed; conditions: glutamate overnight
Protocol: Norepinephrine has neuroprotective activity against oxidative stress-induced neuronal apoptosis. To investigate whether this protective action by norepinephrine is mediated through TrkB, apoptosis of TrkB F616A cortical neurons was monitored. Primary cortical neurons were pretreated with inhibitors K252a or 1NMPP1 followed by overnight treatment with 50 mM glutamate.

TrkB F616A knockin mice = experiment: Kainic acid-induced neuronal apoptosis in TrkB F616A knockin mice (immunoblotting and Caspase-3 ELISA); assay type: in vivo; conditions: 1NMPP1 16.6 ng/kg 2 days before
Protocol: To determine whether Compound I-11 (ADPP) and Compound I-8 (DDAP) protect neurons from KA-induced apoptosis, TrkB F616A knockin mice were pretreated with inhibitor 1NMPP1 (16.6 ng/kg) 2 days before the experiment. Compound I-8 (DDAP) or Compound I-11 (ADPP) (50 mg/kg) was orally injected into the mice 2 hours before kainic acid (KA) administration (20 mg/kg). Brain lysates were analyzed by immunoblotting and Caspase-3 ELISA. […] The extent of the protective effect correlates with TrkB activation status by these compounds. Active Caspase-3 ELISA correlated with the immunoblotting results (FIG. 28B, right panel).

mice = experiment: Forced swim test; assay type: in vivo; conditions: TrkB F616A knockin mice
Protocol: Accumulating evidence supports that BDNF plays an essential role in mediating antidepressants' therapeutic effects. Infusion of exogenous BDNF into hippocampus or brain stem has antidepressant-like behavioral effect. A forced swim test is broadly used for screening of potential antidepressant drugs and is widely used to measure antidepressant activity. To explore whether Compound I-11 (ADPP) and Compound I-8 (DDAP) have antidepressant effects like BDNF, forced swim tests were conducted. Adult male mice (2-3 months old, n=8) were randomly submitted, without a pre-swim, to a forced swim test of 6 minutes with immobility recorded in the last 4 minutes. Mice were injected intraperitoneally with saline, Compound I-11 (20 mg/kg), or Compound I-8 (20 mg/kg). The mice were allowed to adapt to the test room for 2 days, and the mice were placed in a clear glass cylinder with a diameter of 16 cm, half-filled with clear water at 24° C.
To assess whether the behavior responses caused by catecholamine derivatives is mediated by TrkB receptor, TrkB F616A knockin mice were utilized. The mice were subjected to saline or 1NMPP1 inhibitor pretreatment.

[8] = target: T7, TrkB intracellular domain (ICD) (Homo sapiens, UniProt Q16620); experiment: In vitro binding assay with purified TrkB ICD and 3H-ligands (Scatchard plot)
T7 construct: purified ECD (extracellular domain) and ICD (intracellular domain) proteins from Trk receptors
Protocol: as §1, §2

TrkA = TrkA (Homo sapiens, UniProt P04629); conditions: transfected HEK293 cells
Protocol: as §2

TrkC = TrkC (Homo sapiens, UniProt Q16288); conditions: transfected HEK293 cells
Protocol: as §2

TrkB [9] = target: T3, TrkB; assay type: cell-based, mice; conditions: compared to wild-type control neurons
Protocol: as §4

TrkB [10] = target: T8, TrkB (Homo sapiens, UniProt Q16620); experiment: Tyrosine phosphorylation of TrkB in transfected HEK293 cells; assay type: cell-based; parameters: expressed in transfected cells; host or cells: HEK293
Protocol: as §2
Target sequence in this assay (Q16620 32-822, species assumed): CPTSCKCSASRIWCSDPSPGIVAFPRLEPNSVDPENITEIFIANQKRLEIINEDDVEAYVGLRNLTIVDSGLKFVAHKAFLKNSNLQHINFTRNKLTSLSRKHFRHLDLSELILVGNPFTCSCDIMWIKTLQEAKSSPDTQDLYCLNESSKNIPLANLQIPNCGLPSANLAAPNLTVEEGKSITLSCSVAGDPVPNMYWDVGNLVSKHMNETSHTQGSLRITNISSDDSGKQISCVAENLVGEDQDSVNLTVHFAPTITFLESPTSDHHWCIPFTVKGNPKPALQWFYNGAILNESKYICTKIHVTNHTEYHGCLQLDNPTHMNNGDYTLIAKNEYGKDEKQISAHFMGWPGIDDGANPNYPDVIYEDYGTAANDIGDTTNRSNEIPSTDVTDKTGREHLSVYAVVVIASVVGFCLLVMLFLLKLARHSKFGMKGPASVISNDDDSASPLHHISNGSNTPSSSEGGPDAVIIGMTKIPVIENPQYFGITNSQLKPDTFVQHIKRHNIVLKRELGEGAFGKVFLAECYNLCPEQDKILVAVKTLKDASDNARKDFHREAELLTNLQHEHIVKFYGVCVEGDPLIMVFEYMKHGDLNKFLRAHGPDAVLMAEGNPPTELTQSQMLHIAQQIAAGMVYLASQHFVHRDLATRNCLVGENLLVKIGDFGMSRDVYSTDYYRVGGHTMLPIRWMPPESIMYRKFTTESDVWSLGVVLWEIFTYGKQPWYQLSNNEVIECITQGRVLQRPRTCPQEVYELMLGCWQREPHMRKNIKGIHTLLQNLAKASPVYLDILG

TrkB [11] = target: T8, TrkB; experiment: Activation of transfected TrkB in HEK293 cells with or without DAT or NET; assay type: cell-based; parameters: expressed in transfected cells; host or cells: HEK293; conditions: NET transfected HEK293 cells
Target sequence in this assay (Q16620 32-822, species assumed): as above

TrkB [12] = target: T2, TrkB; experiment: Immunofluorescent staining with anti-phospho-TrkB Y816 in primary hippocampal neurons; assay type: cell-based; conditions: 300 nM, 30 min
Protocol: Primary Rat Cortical and Hippocampal Neuron Cultures
Primary hippocampal neurons were seeded on poly-L-lysine coated coverslips in a 12-well plate. After 7 days in vitro, the neurons were treated with 100 ng/ml BDNF or variety of neurotransmitters and 7,8-dihydroxyflavone compound (500 nM) for 30 min, and then washed with PBS. Cells were fixed with 3% formaldehyde in PBS at room temperature for 15 min. The cells were then permeabilized and blocked by 0.4% Triton X-100 and 2% FBS in PBS at room temperature for 15 minutes, washed with PBS three times and treated with anti-MAP2 (1:200) and anti-phospho-TrkB antibodies (1:100). After staining with FITC- or Rhodamine-conjugated secondary antibody, the coverslips were mounted on slides. Fluorescent images were taken by OLYMPUS IX71 fluorescence microscope (Olympus; Center Valley, Pa.).
To explore whether monoamine neurotransmitters, including catecholamines (see, e.g., FIG. 1), could stimulate TrkB activation, hippocampal neurons were treated with 300 nM of catecholamines, serotonin, and melatonin for 30 min.

TrkB [13] = target: T8, TrkB; experiment: TrkB dimerization, co-immunoprecipitation of GST-TrkB and HA-TrkB in HEK293 cells; assay type: cell-based; parameters: GST; HA; expressed in transfected cells; host or cells: HEK293; conditions: 15 minutes
Protocol: as §2
Target sequence in this assay (Q16620 32-822, species assumed): as above
Target sequence in this assay (Q16620 32-822, species assumed): as above

T4 sequence (P15209 32-821 F616A): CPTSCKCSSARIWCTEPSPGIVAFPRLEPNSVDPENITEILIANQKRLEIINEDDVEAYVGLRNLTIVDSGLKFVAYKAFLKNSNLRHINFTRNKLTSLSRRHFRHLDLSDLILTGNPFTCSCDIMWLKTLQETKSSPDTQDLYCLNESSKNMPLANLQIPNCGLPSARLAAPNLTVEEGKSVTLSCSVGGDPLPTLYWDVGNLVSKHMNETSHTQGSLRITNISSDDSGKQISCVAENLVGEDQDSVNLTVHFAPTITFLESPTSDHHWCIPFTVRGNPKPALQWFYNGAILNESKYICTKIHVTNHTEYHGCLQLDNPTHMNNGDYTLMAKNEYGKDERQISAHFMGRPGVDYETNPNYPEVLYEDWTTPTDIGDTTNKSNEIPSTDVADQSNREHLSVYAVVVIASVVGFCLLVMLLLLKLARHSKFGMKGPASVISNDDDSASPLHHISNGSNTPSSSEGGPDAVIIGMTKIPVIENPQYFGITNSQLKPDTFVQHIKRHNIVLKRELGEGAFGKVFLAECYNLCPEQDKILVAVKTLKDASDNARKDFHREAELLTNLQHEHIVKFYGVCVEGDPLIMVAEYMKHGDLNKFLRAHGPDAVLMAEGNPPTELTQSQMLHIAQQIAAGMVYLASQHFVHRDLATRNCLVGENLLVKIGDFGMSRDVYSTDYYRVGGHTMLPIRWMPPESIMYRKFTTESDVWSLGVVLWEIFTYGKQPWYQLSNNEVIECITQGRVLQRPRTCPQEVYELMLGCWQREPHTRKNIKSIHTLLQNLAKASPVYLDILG
T3 sequence (P15209 32-821): as the sequence (P15209 32-821 F616A) above, with A585F counted along it
T2 sequence (Q63604 32-821): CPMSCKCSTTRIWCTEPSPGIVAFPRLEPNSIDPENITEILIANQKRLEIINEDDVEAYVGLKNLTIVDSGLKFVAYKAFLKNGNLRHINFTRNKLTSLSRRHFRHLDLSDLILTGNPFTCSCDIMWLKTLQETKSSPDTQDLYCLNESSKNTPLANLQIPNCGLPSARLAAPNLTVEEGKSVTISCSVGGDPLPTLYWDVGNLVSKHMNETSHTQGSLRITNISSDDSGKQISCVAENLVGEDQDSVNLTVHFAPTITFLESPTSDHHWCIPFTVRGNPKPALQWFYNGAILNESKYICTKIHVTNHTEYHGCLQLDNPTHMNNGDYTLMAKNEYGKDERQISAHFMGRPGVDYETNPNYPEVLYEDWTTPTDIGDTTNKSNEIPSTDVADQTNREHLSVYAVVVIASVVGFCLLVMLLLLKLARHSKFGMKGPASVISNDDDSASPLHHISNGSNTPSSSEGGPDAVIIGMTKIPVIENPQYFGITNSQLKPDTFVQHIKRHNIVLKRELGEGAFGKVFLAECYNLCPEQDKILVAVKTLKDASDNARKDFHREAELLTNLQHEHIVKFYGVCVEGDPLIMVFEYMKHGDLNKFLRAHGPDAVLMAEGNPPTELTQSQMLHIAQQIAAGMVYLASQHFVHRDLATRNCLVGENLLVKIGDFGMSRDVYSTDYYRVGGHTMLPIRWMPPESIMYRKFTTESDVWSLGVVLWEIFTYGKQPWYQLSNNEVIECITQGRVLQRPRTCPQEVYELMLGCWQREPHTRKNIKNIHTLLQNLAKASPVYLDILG
T7 sequence (Q16620 455-822 limits assumed): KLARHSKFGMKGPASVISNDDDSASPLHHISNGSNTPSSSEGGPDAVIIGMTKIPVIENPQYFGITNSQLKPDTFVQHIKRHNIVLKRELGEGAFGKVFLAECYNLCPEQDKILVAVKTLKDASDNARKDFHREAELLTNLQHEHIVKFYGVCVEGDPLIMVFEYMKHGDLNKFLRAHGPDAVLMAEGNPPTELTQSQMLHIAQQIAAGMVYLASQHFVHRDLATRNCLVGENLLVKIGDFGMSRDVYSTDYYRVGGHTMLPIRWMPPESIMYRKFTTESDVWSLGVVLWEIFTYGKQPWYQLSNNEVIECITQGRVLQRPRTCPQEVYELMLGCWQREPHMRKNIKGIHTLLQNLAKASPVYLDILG
T6 sequence (P15209 32-821 F616A): as the sequence (P15209 32-821 F616A) above
T5 sequence (P15209 32-821 F616A): as above
Sequence of TrkA (P04629 33-796, species assumed): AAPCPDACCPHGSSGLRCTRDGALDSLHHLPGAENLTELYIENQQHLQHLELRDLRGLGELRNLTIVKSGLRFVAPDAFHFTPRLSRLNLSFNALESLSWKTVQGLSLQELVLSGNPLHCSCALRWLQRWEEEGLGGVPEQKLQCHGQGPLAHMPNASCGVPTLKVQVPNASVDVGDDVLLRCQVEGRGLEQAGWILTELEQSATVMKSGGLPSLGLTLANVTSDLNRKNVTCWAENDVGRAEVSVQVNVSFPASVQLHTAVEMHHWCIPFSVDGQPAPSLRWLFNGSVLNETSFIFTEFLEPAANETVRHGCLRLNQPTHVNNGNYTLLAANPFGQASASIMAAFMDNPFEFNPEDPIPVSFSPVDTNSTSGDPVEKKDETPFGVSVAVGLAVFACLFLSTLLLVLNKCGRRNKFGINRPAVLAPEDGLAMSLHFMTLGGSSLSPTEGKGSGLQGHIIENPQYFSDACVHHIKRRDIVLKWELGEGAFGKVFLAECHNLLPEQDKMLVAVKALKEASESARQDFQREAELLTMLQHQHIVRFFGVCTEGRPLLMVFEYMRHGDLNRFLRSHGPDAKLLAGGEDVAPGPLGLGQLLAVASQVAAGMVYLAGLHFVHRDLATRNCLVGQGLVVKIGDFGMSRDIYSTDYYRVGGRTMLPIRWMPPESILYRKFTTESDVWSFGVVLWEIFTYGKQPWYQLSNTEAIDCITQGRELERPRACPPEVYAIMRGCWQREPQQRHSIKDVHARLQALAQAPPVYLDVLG
T1 sequence (Q16620 32-430 limits assumed): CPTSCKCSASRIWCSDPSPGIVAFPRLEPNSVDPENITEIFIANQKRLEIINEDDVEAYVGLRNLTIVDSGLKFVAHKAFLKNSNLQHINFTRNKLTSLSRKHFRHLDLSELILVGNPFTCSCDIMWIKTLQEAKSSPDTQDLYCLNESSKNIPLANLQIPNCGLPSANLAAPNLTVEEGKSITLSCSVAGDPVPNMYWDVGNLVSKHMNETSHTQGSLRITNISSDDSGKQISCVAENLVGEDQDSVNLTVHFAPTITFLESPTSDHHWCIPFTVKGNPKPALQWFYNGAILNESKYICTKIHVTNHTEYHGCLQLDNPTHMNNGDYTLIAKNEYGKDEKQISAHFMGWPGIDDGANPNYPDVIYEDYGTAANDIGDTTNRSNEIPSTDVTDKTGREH
Sequence of TrkC (Q16288 32-839, species assumed): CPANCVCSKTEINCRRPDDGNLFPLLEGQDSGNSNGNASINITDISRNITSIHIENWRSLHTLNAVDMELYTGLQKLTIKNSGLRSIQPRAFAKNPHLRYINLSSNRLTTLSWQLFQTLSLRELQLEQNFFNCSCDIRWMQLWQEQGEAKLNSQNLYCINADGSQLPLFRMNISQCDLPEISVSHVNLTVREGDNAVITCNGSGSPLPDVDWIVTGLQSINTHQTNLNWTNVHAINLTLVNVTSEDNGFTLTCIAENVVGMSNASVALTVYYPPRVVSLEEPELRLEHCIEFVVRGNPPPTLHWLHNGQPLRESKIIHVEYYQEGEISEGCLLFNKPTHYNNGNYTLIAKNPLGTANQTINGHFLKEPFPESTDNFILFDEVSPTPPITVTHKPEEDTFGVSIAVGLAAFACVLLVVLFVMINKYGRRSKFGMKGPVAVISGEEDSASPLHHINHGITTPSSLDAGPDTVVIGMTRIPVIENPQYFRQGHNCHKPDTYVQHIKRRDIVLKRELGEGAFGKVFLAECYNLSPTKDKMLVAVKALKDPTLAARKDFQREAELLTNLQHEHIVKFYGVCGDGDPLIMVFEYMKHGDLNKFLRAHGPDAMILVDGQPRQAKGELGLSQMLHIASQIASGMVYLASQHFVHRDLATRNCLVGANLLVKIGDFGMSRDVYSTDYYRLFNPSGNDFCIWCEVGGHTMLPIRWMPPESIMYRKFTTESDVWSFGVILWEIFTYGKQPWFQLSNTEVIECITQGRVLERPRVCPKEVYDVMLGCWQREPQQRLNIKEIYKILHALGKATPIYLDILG

Molecule: O=c1cc(-c2ccccc2)oc2c(O)c(O)ccc12 [7,8-dihydroxyflavone]
Binding to ECD of TrkB receptor [1]: selectively bound | Effect of BDNF-IgG pretreatment on phosphorylation of TrkB induced by the substance (TrkB [2]): had no effect | Activation of TrkB in BDNF-null cortical neurons (TrkB [3]): evident activation of TrkB | TrkB tyrosine phosphorylation/activation in mice (TrkB [4]): provoked evident TrkB activation

Molecule: CC(C)(C)n1nc(Cc2cccc3ccccc23)c2c(N)ncnc21 [Compound 1NMPP1]
Effect of inhibitor on catecholamine-induced TrkB activation (TrkB F616A [5]): but not by 1NMPP1 | Effect of inhibitor on catecholamine-provoked TrkB phosphorylation (TrkB F616A [6]): selectively reduced | TrkB tyrosine phosphorylation/activation in mice (TrkB [4]): had no effect | Effect of 1NMPP1 pretreatment on TrkB activation by 7,8-dihydroxyflavone, L-DOPA and DOPS (TrkB [4]; TrkB F616A mice): markedly diminished TrkB activation | Effect of inhibitor on protective action of norepinephrine [7]: abolished | Effect of 1NMPP1 pretreatment on protective effect of Compounds I-8 and I-11 (TrkB F616A knockin mice): blocked the protective effect | Immobility times, 1NMPP1 versus saline treated control groups (mice): No significant difference

Molecule: CNC[C@H](O)c1ccc(O)c(O)c1 [epinephrine]
Binding to ICD of TrkB receptor ([8]; purified ICD, 3H-ligand): strongest binding activity | Kd ([8]; purified protein, 25° C., 30 minutes, read-out: TrkB binding constants (Scatchard plot)): 1100 nM | Tyrosine phosphorylation of TrkA (TrkA): but not in TrkA | Tyrosine phosphorylation of TrkC (TrkC): but not in TrkA or TrkC | TrkB activation in NET -/- neurons (TrkB [9]): completely blocked | Tyrosine phosphorylation of TrkB (TrkB [10]): elicited tyrosine phosphorylation | Increase of stimulatory activity by overexpression of NET compared to control cells (TrkB [11]): approximately 100 fold

Effect of BDNF-IgG pretreatment on phosphorylation of TrkB induced by the substance (TrkB [2]): abolished | Activation of TrkB in BDNF-null cortical neurons (TrkB [3]): evident activation of TrkB | TrkB homodimerization (TrkB [13]): elicited TrkB homodimerization
B1: BDNF: Brain-derived neurotrophic factor, natural ligand of TrkB (protein, UniProt P23560 19-247, looked up)
Neurotrophic factor BDNF …: APMKEANIRGQGGLAYPGVRTHGTLESVNGPKAGSRGLTSLADTFEHVIEELLDEDQKVRPNEENNKDADLYTSRVMLSSQVPLEPPLLFLLEEYKNYLDAANMSMRVRRHSDPARRGELSVCDSISEWVTAADKKTAVDMSGGTVTVLEKVPVSKGQLKQYFYETKCNPMGYTKEGCRGIDKRHWNSQCRTTQSYVRALTMDSKKRIGWRFIRIDTSCVCTLTIKRGR
TrkB tyrosine phosphorylation (immunofluorescent staining) (TrkB [12]): strongly triggered TrkB tyrosine phosphorylation
